Laboratory results as given in patent publication US20250034151A1, “WEE1 INHIBITOR, PREPARATION THEREFOR, AND USE THEREOF” (JIANGSU TASLY DIYI PHARMACEUTICAL CO., LTD., priority 2022, published 2025).

Experiments:
[1] = Plasma protein binding (PPB), equilibrium dialysis; assay type: in vitro ADME; settings: mouse plasma, 5 h dialysis
Description: 1. Experimental Procedure
2. Data Processing and Parameter Calculation

[2] = Membrane permeability study (Caco-2); assay type: in vitro ADME; settings: human; for Papp A→B at 90 min, 10 µM / Papp B→A at 90 min, 10 µM: pH 7.4, Caco-2, 10 μM; for Papp A→B at 90 min, 10 µM: apical to basolateral; for Papp B→A at 90 min, 10 µM: basolateral to apical
Protocol: Caco-2 cells were purchased from the […] (Rockville, MD). The cell culture medium was modified Eagle's medium (MEM) containing 10% inactivated fetal bovine serum and 1% non-essential amino acids.
The cells were incubated for 21-28 days after inoculation for transport experiments and the apparent permeability (Papp) of Lucifer Yellow was used to characterize and verify the compactness of the cell monolayer. […] A 10 μM working solution of the compound to be tested was added to the apical side and basolateral side of Caco-2 and incubated at 37° C. for 90 min. After the incubation, dilute the samples on the apical side and basolateral side, and the concentrations of compounds on the apical and basolateral sides were detected by LC-MS/MS, and the concentrations of the compounds were quantified by standard curve.

[3] = Pharmacokinetics on single dose in mice (intravenous and oral); assay type: in vivo, ICR mice; settings: for F/%: Oral 10 mg/kg vs Intravenous 1 mg/kg; for Cmax / half-life / AUC(0-t) / MRT: male, ICR, mouse, plasma
Protocol: 1. Experimental Aim: The present experiment aimed to obtain the pharmacokinetic profile of the subject compounds in ICR mice (both intravenous and oral) 3.1.2 Test System Species: SPF grade male ICR mice Body weight/weekly age: about 30 g 4. […] 4.2 Subjects Given (Route) Intravenous: 1 mg/kg in a volume of 5 mL/kg Gavage: 10 mg/kg in a volume of 10 mL/kg Ultrasound for 5 min before administration 4.3 Subject Preparation (Concentration) Intravenous: 0.2 mg/mL Gavage: 1 mg/mL Fast overnight before administration and feed four hours after administration. […] The blood samples were stored in a refrigerator at or below −20° C. for LC-MS/MS analysis. […] LC-MS/MS Analytical Detection Used 5. Data Processing The samples were detected for drug concentration at each time point by LC-MS/MS. Pharmacokinetic parameters terminal elimination half-life (t1/2), area under the curve (AUC), apparent volume of distribution (Vd), clearance (CL), mean residence time (MRT), and Cmax were calculated using the non-compartmental model of Phoenix WinNonlin 5.2. Bioavailability (F %) was directly from serum concentration results. Mean±standard deviation (X±SD) was used for blood concentration and pharmacokinetic parameters, etc. Specific testing and analytical methods were specified in the form of protocol revisions.

[4] = target: CYP2C19 (Homo sapiens, UniProt P33261); assay: in vitro; settings: CYP2C19 enzyme, pH 7.4, probe EOMCC (0.01 mM)
Chain of CYP2C19 (P33261 whole entry, species assumed): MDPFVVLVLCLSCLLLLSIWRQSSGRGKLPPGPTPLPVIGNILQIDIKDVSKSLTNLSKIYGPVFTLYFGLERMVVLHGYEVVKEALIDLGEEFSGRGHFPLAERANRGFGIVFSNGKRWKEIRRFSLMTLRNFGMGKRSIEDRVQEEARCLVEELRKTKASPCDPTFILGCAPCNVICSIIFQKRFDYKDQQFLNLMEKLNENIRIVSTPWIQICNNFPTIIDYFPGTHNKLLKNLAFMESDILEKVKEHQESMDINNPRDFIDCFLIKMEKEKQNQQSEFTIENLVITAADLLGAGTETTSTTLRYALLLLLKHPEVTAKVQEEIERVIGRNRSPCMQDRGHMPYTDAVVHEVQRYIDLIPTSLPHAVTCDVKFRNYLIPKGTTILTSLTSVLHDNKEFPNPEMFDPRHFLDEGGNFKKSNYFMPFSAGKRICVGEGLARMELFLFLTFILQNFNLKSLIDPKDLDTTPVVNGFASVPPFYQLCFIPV

[5] = system: H1299 cells; assay: Anti-proliferative effect on H1299 cells by Cell Titer-Glo; assay type: cell-based; settings: Homo sapiens, NCI-H1299, 72 h, 3 days, read-out: H1299 (IC50, inhibition of proliferation in vitro)
How it was run: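 H1299 cells exposed to compound dilutions for 3 days at 37 °C, 5% CO2, final DMSO 0.2%. Viability read by CellTiter-Glo luminescence, normalised to untreated-cell (max) and medium (min) controls. IC50 from a variable-slope log(inhibitor) vs. response fit.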

[6] = system: MIA PaCa2 cells; assay: Anti-proliferative effect on MIA PaCa2 cells by Cell Titer-Glo; assay type: cell-based; settings: Homo sapiens, MIA PaCa-2, 72 h, 3 days, read-out: MIA PaCa 2 (IC50, inhibition of proliferation in vitro)
How it was run: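 Cells exposed to graded compound concentrations for 3 days at 37° C, 5% CO2, final DMSO 0.2%; viability read by CellTiter-Glo luminescence. Inhibition normalised to untreated cells (max) and medium (min); IC50 fitted by variable-slope log(inhibitor)-response model.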

[7] = target: T1, Wee1 protein (Homo sapiens, UniProt P30291); assay: Binding of compound to Wee1 protein and Tracer 178 by TR-FRET (Wee1 kinase inhibitory activity); settings: 15 nM WEE1, 50 nM Tracer 178, read-out: IC50 (inhibitory activity against Wee1 kinase)
T1 construct: purchased Thermo Fisher PR7373A
T1 sequence (P30291 whole entry): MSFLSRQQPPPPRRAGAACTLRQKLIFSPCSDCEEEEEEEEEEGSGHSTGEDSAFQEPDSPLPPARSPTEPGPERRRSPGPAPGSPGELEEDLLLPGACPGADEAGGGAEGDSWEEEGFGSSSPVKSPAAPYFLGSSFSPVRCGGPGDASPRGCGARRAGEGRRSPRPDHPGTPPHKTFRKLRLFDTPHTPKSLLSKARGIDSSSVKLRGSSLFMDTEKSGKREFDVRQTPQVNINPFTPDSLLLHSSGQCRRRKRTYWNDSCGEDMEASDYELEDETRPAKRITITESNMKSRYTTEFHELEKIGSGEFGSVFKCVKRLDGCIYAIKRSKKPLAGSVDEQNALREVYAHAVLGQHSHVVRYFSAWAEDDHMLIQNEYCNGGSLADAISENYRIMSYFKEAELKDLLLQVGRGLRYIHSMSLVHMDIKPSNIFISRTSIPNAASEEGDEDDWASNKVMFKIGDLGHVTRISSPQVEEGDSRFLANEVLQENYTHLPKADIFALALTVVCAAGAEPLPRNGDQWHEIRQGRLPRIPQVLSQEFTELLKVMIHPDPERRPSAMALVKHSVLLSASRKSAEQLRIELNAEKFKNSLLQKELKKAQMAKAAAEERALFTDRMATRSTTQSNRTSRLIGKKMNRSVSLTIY

inhibition at 30 min, 1 µM [4] [%]	inhibition at 30 min, 10 µM [4] [%]	SMILES	fraction unbound at 5 h, 1 µM [1]	Papp A→B at 90 min, 10 µM [2] [×10⁻⁶ cm/s]	Papp B→A at 90 min, 10 µM [2] [×10⁻⁶ cm/s]	F/% [3] [%]	Cmax ([3]; Intravenous, 1 mg/kg) [ng/mL]	half-life ([3]; Intravenous, 1 mg/kg) [min]	IC50 [5] [nM]	IC50 [6] [nM]	efflux ratio at 90 min, 10 µM ([2]; Caco-2, pH 7.4)	AUC(0-t) ([3]; Intravenous, 1 mg/kg) [ng·h/mL]	MRT ([3]; Intravenous, 1 mg/kg) [min]	AUC(0-t) ([3]; Oral, 10 mg/kg) [ng·h/mL]	Cmax ([3]; Oral, 10 mg/kg) [ng/mL]	MRT ([3]; Oral, 10 mg/kg) [min]	half-life ([3]; Oral, 10 mg/kg) [min]	IC50 [7] [nM]
25.4	71.9	C=CCn1c(=O)c2cnc(Nc3ccc(N4CCN(C)CC4)cc3)nc2n1-c1cccc(C(C)(C)O)n1 [AZD1775]	0.087	15.6	39.8	32	250	30	100 to 1000	100 to 1000								
		C=CCn1c(=O)c2cnc(Nc3ccc(N4CC5CC(C4)N5C)cc3)nc2n1-c1cccc(C(C)(C)O)n1 [Compound 27]	0.141	3.07	53.5	28.6	170	46.8	100 to 1000	100 to 1000	17.4	134	39.6	285	392	66	61.8	5 to 10
